Experimental findings from ChEMBL document CHEMBL1151921 (Bioorg Med Chem, 2009) are described below.

The target in one assay is D(2) dopamine receptor (Rattus norvegicus, UniProt P61169). Put plainly: Displacement of [3H]spiperone from rat dopamine D2L receptor expressed in HEK293 cells. Format: cell-based.
In another assay the target is D(3) dopamine receptor (Rattus norvegicus, UniProt P19020). Put plainly: biochemical.
Assay [1] deals with D(2) dopamine receptor (Homo sapiens) (UniProt P14416). Put plainly: Activity at human dopamine D2L receptor expressed in CHO cells assessed as stimulation of [35S]GTPgammaS binding relative to dopamine. Format: functional, cell-based.

pKi: −log10 of the molar value.

Sequence of D(2) dopamine receptor (P61169 whole entry): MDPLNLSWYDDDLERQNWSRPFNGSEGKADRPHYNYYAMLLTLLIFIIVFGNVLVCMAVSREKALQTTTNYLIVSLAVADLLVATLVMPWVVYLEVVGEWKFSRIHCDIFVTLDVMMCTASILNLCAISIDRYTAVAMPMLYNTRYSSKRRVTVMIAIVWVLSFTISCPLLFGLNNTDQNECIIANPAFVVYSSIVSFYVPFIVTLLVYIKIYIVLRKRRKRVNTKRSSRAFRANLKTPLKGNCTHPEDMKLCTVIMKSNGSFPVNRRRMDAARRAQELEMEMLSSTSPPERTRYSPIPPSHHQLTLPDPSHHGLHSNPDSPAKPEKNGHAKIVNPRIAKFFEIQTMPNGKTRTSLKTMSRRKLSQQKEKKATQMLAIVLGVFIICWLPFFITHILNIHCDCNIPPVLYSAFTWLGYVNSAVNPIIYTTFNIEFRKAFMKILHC
Sequence of D(3) dopamine receptor (P19020 whole entry): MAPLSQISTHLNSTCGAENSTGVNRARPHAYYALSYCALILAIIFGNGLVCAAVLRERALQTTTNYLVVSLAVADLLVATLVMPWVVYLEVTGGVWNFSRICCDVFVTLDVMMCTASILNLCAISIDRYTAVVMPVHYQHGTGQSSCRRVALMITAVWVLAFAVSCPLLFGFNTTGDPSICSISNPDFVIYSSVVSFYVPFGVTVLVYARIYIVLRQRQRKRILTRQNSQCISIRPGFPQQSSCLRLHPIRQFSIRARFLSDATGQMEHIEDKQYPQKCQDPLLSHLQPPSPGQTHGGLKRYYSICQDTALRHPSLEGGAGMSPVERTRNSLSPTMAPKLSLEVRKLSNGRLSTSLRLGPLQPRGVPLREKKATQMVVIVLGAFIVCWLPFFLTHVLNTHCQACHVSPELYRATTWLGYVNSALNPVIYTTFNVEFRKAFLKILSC
Sequence of D(2) dopamine receptor (Homo sapiens) (P14416 whole entry): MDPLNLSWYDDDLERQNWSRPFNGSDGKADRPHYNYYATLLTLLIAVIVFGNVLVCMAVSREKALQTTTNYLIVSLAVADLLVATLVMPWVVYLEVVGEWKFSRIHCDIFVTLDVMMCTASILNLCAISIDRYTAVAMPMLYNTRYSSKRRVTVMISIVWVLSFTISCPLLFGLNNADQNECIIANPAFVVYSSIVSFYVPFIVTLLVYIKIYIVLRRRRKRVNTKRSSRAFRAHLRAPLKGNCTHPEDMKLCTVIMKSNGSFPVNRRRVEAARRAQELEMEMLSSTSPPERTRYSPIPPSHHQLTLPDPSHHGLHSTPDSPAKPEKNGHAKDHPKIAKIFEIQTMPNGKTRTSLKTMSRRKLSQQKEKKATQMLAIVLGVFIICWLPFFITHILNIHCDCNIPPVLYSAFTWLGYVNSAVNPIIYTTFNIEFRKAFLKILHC

For orientation: pKi means the Ki on a negative log10 scale, so that one unit is a factor of ten. A lower pKi goes with a large Ki. Turning to `CCCN(CCN1CCN(Cc2cc3ccccc3[nH]2)CC1)C1CCc2ccc(O)cc2C1` (stereo not drawn), the pKi at D(2) dopamine receptor was 7.00; on D(3) dopamine receptor, 8.32.

On D(2) dopamine receptor, `CCCN(CCN1CCN(c2ccc(-c3ccccc3)cc2)CC1)[C@H]1CCc2nc(N)sc2C1` showed a pKi of 6.58.

A word on the Emax: it is the greatest response seen or fitted, relative to the assay's reference. On to `CCCN(CCC)C1CCc2c(O)cccc2C1` (stereo not drawn), for which the Emax in assay [1] came to 77.8%.

In turn, `CCCN(CCN1CCN(C(=O)c2ccc3[nH]ccc3c2)CC1)C1CCc2ccc(O)cc2C1` (stereo not drawn) had a pKi on D(2) dopamine receptor of 7.18.

For the molecule `CCCN(CCN1CCN(C(=O)c2cc3ccccc3o2)CC1)C1CCc2c(O)cccc2C1` (stereo not drawn), the pKi on D(2) dopamine receptor is 6.88; on D(3) dopamine receptor, 8.28.

Regarding `CCCN(CCN1CCN(C(=O)c2ccc3[nH]ccc3c2)CC1)[C@H]1CCc2c(O)cccc2C1`, the Emax in assay [1] was determined as 80%.
